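Tested at 5 concentrations; 48 h exposure; 96-well plates; endpoints linearly interpolated, else capped at highest concentration. Definition used: TGI = concentration required for complete inhibition of growth.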
Tests used:
Assay in all cases: NCI tumour cell line growth inhibition, 48 h
[1] = test system: HOP-62 NSCLC
[2] = test system: SNB-75 CNS
[3] = test system: HL-60(TB) leukemia
[4] = test system: SK-MEL-5 melanoma
[5] = test system: A549 NSCLC
[6] = test system: NCI-H23 lung
[7] = test system: HT29 colon
[8] = test system: SK-MEL-2 melanoma
[9] = test system: A498 renal
[10] = test system: TK-10 renal
[11] = test system: PC-3 prostate
[12] = test system: SW-620 colon
[13] = test system: OVCAR-4 ovarian
[14] = test system: MDA-MB-435
[15] = test system: OVCAR-3 ovarian
[16] = test system: DU-145 prostate
[17] = test system: 786-0 renal
[18] = test system: RXF 393 renal
[19] = test system: U251 CNS
[20] = test system: BT-549 breast
[21] = test system: SF-295 CNS
[22] = test system: SNB-19 CNS
[23] = test system: KM12 colon
[24] = test system: UACC-257 melanoma
[25] = test system: NCI/ADR-RES ovarian
[26] = test system: MDA-MB-231 breast
[27] = test system: UO-31 renal
[28] = test system: UACC-62 melanoma
[29] = test system: HCT-15 colon
[30] = test system: OVCAR-5 ovarian
[31] = test system: SF-268 CNS
[32] = test system: LOX IMVI melanoma
[33] = test system: NCI-H226 lung
[34] = test system: NCI-H460 lung
[35] = test system: IGROV1 ovarian
[36] = test system: EKVX NSCLC
[37] = test system: ACHN renal
[38] = test system: SN12C renal
[39] = test system: MDA-N
[40] = test system: HS 578T breast
[41] = test system: HCC-2998 colon
[42] = test system: NCI-H522 lung
[43] = test system: SK-OV-3 ovarian
[44] = test system: M14 melanoma
[45] = test system: HOP-92 NSCLC
[46] = test system: CAKI-1 renal
[47] = test system: MCF7 breast
[48] = test system: K-562 leukemia
[49] = test system: SF-539 CNS
[50] = test system: HCT-116 colon
[51] = test system: MALME-3M melanoma
[52] = test system: OVCAR-8 ovarian
[53] = test system: COLO 205 colon
[54] = test system: RPMI-8226 leukemia
[55] = test system: MOLT-4 leukemia
[56] = test system: CCRF-CEM leukemia
[57] = test system: T-47D breast
[58] = test system: SK-MEL-28 melanoma
[59] = test system: SR leukemia

Measured: TGI

O=C1C=CC2(O[C@H](c3ccccc3)[C@@H](c3ccccc3)O2)[C@H](Sc2ccccc2O)C1
1.7 µM: [49]
3.98 µM: [1]
1.13 µM: [39]
16.4 µM: [5]
1.32 µM: [45]
0.886 µM: [46]
0.217 µM: [52]
0.593 µM: [35]
0.507 µM: [29]
11.8 µM: [43]
2.13 µM: [28]
2.22 µM: [4] | [26]
1.63 µM: [41]
3.74 µM: [22]
2.39 µM: [6]
1.78 µM: [19]
0.338 µM: [32]
5.15 µM: [9]
3.31 µM: [36]
7.88 µM: [40]
1.45 µM: [7]
0.966 µM: [10]
1.22 µM: [27]
6.45 µM: [23]
1.51 µM: [15]
0.907 µM: [51]
0.964 µM: [31]
0.982 µM: [14]
0.524 µM: [18]
4.63 µM: [8]
> 100 µM: [12]
0.356 µM: [17]
2.59 µM: [16]
8.95 µM: [34]
4.49 µM: [30]
0.182 µM: [42]
10 µM: [25]
1.46 µM: [20]
0.353 µM: [38]
2.06 µM: [11]
2.44 µM: [47]
5.43 µM: [33]
0.609 µM: [44]
8.16 µM: [2]
2.43 µM: [13]
0.309 µM: [50]
2.82 µM: [3]
1.62 µM: [53]
1.71 µM: [24]
78.2 µM: [48]
1.07 µM: [37]
15.6 µM: [21]

COc1ccc(N=Nc2c(-c3c(OC)cc4occc4c3OC)[nH]c(=O)c(C#N)c2C)cc1
not listed: [9] | [20]
> 100 µM: all other assays above

c1ccc2c(c1)SCCCS2
not listed: [8] | [9] | [18] | [33] | [37] | [40] | [46] | [51] | [54]
> 100 µM: all other assays above

CCOC(=O)/C=C/c1nc(C#N)c(N)o1
not listed: [6] | [13] | [15] | [20] | [21] | [25] | [33] | [34] | [41] | [42] | [49] | [51] | [53] | [57]
> 100 µM: all other assays above
